Columns and labels:
Assay in all cases: cells
Design in all cases: species or system panel of 482 human cancer cell lines; ATPLite luminescence growth inhibition after treatment, nine-point dilution curve, 482 cancer cell lines, 384-well
Conditions in all cases: 72 h, recommended growth medium
AU565_BREAST = system: AU565_BREAST
Experimental: (§1) Cells were seeded in recommended growth media in black 384-well tissue culture treated plates at 500 cells per well. Cells were equilibrated in assay plates via centrifugation and placed in incubators for 24 h before treatment. […] Treated assay plates were incubated with compounds for 72 h and subsequently were developed for endpoint analysis using ATPLite. Each compound was assessed using a nine-point dilution curve. Cells were defined as sensitive to a given compound based on GI75 < 2 μM with manual quality control of curve fit. GI75 is defined as a drug concentration that causes a 75% reduction in assay readout relative to dimethyl sulfoxide (DMSO)-treated controls. To identify novel cancer vulnerabilities, we screened a panel of 482 cell lines with a diverse set of metabolic inhibitors. […] Given that SCLC is thought to arise from neuroendocrine cells in the lung[9], we tested the NB-598 sensitivity in a panel of 42 SCLC cell lines. We calculated a quantitative metric of sensitivity for each cell line based on the area under the curve (AUC) of the mu/mu.max curve to more accurately capture the potency and extent of NB-598 effects. […] We categorized the SCLC cell lines as sensitive (5/42), moderate (11/42), and insensitive (26/42) (Fig. 1c and Supplementary Data 2) and focused all subsequent efforts on this indication. […] To further understand the patterns of sensitivity, we conducted RNA sequencing (RNA-Seq; Supplementary Data 3) and proteomic (Supplementary Data 4) characterization of the SCLC panel to identify unbiased expression signatures associated with enhanced NB-598 response (Supplementary Fig. 1 and Supplementary Fig. 2). Given the growing understanding that SCLC tumors can be further subdivided based on the status of lineage-defining transcription factors, ASLC1 and NEUROD1, we specifically investigated NB-598 response as the function of ASCL1 and NEUROD1 expression levels. […] To further dissect the NB-598 response within the ASCL1-high/NEUROD-low subset of 25 cell lines, we identified RNA-Seq and proteomics expression signatures associated with NB

[1] = system: HTK_HAEMATOPOIETIC_AND_LYMPHOID_TISSUE
Experimental: as §1

SNU601_STOMACH = system: SNU601_STOMACH
Experimental: as §1

SNU620_STOMACH = system: SNU620_STOMACH
Experimental: as §1

HGC27_STOMACH = system: HGC27_STOMACH
Experimental: as §1

NCIH2171_LUNG = system: NCIH2171_LUNG
Experimental: as §1

SKBR3_BREAST = system: SKBR3_BREAST
Experimental: as §1

[2] = system: OCILY8_HAEMATOPOIETIC_AND_LYMPHOID_TISSUE
Experimental: as §1

[3] = system: SUDHL2EPST_HAEMATOPOIETIC_AND_LYMPHOID_TISSUE
Experimental: as §1

[4] = system: SUDHL4_HAEMATOPOIETIC_AND_LYMPHOID_TISSUE
Experimental: as §1

JHH6_LIVER = system: JHH6_LIVER
Experimental: as §1

IM95_STOMACH = system: IM95_STOMACH
Experimental: as §1

NCIH2122_LUNG = system: NCIH2122_LUNG
Experimental: as §1

NCIH1836_LUNG = system: NCIH1836_LUNG
Experimental: as §1

NCIH661_LUNG = system: NCIH661_LUNG
Experimental: as §1

NCIH2126_LUNG = system: NCIH2126_LUNG
Experimental: as §1

SNU16_STOMACH = system: SNU16_STOMACH
Experimental: as §1

GI50 (SNU601_STOMACH): 5.4 µM
GI50 (SNU620_STOMACH): 1.78 µM
GI50 (SKBR3_BREAST): 7.19 µM
GI50 [3]: 0.0257 µM
GI50 [4]: 10.6 µM
GI50 (SNU16_STOMACH): 0.0273 µM
Structure (SMILES): CCN(C/C=C/C#CC(C)(C)C)Cc1cccc(OCc2cc(-c3ccsc3)cs2)c1 [NB-598]
GI50 (AU565_BREAST): 399 µM
GI50 [1]: 4.77 µM
GI50 (HGC27_STOMACH): 14.8 µM
GI50 (NCIH2171_LUNG): 2.27 µM
GI50 [2]: 9.19 µM
GI50 (JHH6_LIVER): 8.89 µM
GI50 (IM95_STOMACH): 0.0118 µM
GI50 (NCIH2122_LUNG): 7.51 µM
GI50 (NCIH1836_LUNG): 0.0147 µM
GI50 (NCIH661_LUNG): 28.9 µM
GI50 (NCIH2126_LUNG): 0.144 µM

From paper PMC6327044, “A chemical biology screen identifies a vulnerability of neuroendocrine cancer cells to SQLE inhibition” (Nature Communications, 2019)
